According to ChEMBL document CHEMBL1135840, “Design, synthesis and pharmacological evaluation of novel pyrazolo[3,4-b]thieno[2,3-d]pyridine acid derivatives: a new class of anti-inflammatory and anti-platelet agents” (Bioorg Med Chem Lett, 2002):

How the values were obtained:
Rattus norvegicus [1] = experiment: Exudate volume was determined after administration at a dose of 100 umol/kg; assay type: functional
Oryctolagus cuniculus [2] = species: Oryctolagus cuniculus; experiment: Compound was tested for platelet aggregation in citreated rabbit platelet-rich plasma induced by arachidonic acid at 200 uM; assay type: functional
Rattus norvegicus [3] = experiment: Percent inhibition of cellular migration by the compound at a dose of 100 umol/kg was evaluated; assay type: functional
Oryctolagus cuniculus [4] = species: Oryctolagus cuniculus; experiment: In vitro of platelet aggregation of citreated rabbit platelet-rich plasma, induced by collagen at 5 µg/mL; value expressed as slope
Cavia porcellus = species: Cavia porcellus; experiment: In vitro effect of compound on leukotriene-D4 LTD4 (100 nM) induced contraction of isolated guinea pig tracheal strip; assay type: functional; details: Trachea
Rattus norvegicus [5] = experiment: Antiinflammatory effect at a dose of 100 umol/kg administered orally in the carrageenan-induced rat pleurisy assay (10e6 Cells/cavity); assay type: functional
Oryctolagus cuniculus [6] = species: Oryctolagus cuniculus; experiment: In vitro of platelet aggregation of citreated rabbit platelet-rich plasma, induced by arachidonic acid at 200 uM; assay type: functional
Rattus norvegicus [7] = experiment: Exudate volume was determined after administration at a dose of 100 umol/kg in the carrageenan-induced rat pleurisy assay; assay type: functional
Rattus norvegicus [8] = experiment: Percent inhibition of cellular migration by the compound at a dose of 100 umol/kg was evaluated in the carrageenan-induced rat pleurisy assay; assay type: functional

IC50 (Oryctolagus cuniculus [2]) [µM] | IC50 (Cavia porcellus) [µM] | SMILES | Exudate volume (Rattus norvegicus [1]) [mL] | inhibition in vivo at 100 µmol/kg (Rattus norvegicus [3]) [%] | Aggregation (Oryctolagus cuniculus [4]) | Cell number (Rattus norvegicus [5]) | Aggregation (Oryctolagus cuniculus [6]) [%] | Exudate volume (Rattus norvegicus [7]) [mL] | inhibition in vivo at 100 µmol/kg (Rattus norvegicus [8]) [%]
0.14 | 43.7 | Cc1nn(-c2ccccc2)c2ncc3c(OC(=O)CCCC(=O)O)c(-c4ccc(Cl)cc4)sc3c12 | 3.05 | 36.2 | 0 | 19600000 | 0 | – | –
– | – | Cc1nn(-c2ccccc2)c2ncc3c(OCc4ccc(CC(=O)O)cc4)c(-c4ccc(Cl)cc4)sc3c12 | 3.1 | 28.7 | 4.7 | 21900000 | 60.5 | – | –
– | – | COc1ccc2c(c1)c(CC(=O)O)c(C)n2C(=O)c1ccc(Cl)cc1 [INDOMETHACIN] | – | – | 0.4 | 23.3 | 0 | 3.21 | 24.1
– | – | Cc1nn(-c2ccccc2)c2ncc3c(OCCCCC(=O)O)c(-c4ccc(Cl)cc4)sc3c12 | 3.22 | 30 | 7.5 | 21.5 | 58.9 | – | –
– | – | Cc1nn(-c2ccccc2)c2ncc3c(OCCCCCC(=O)O)c(-c4ccc(Cl)cc4)sc3c12 | 3.16 | 42 | 5.8 | 17800000 | 56.6 | – | –
